SMILES | melting point [°C]
COC(=O)c1scc(-c2ccccc2)c1N | 64 to 66
Cc1cc(NC(=O)C2(C)CC2)ccc1OC(C)C | 99 to 101
Nc1ccc(C2=CCOCC2)c(F)c1 | 86 to 88
COc1ccc(S(=O)(=O)N(c2ccc(Cl)cc2Cc2c(F)cccc2F)C(C)CO)cc1OC (configuration not stated) | 169
COc1cc(C(=O)O)cc(OC)c1Cl | 102 to 103
COc1cc(C(=O)c2ncc3ccc(C(N)=O)cn23)ccc1[N+](=O)[O-] | 289
COCCOc1cc(N(C)S(=O)(=O)c2cccs2)c2[nH]c(C3=NCC(CC(N)=O)S3)cc2c1 (configuration not stated) | 189 to 190
CCCc1c(OCCCS(=O)(=O)c2ccc(C3=CCC(=O)O3)cc2)ccc(C(C)=O)c1O | 135 to 136
O=C(O)CCc1ccc([N+](=O)[O-])cc1 | 162 to 164
Fc1ccc(Cn2c(NC3CCN(CCOc4nc5cccnc5s4)CC3)nc3ccccc32)cc1 | 151
COc1cc(F)ccc1CCN1c2nc(-c3ccncn3)cc(=O)n2CCC1C (configuration not stated) | 148 to 150
O=C(c1ccco1)N1Cc2c(-c3noc(C4CC4)n3)ncn2-c2ccccc21 | 190 to 191
Cc1ccc(C)c(Cn2[nH]c(N)cc2=O)c1 | 124
COc1ccn2nc(-c3ccccc3)c(-c3ccc(=O)[nH]n3)c2c1 | 246 to 247
Cc1cc(C)n2nc(NS(=O)(=O)c3cc(Cl)ccc3Cl)nc2n1 | 216 to 218
CN1CCN(CC2CCN(c3ccc(Nc4ncc5ccc(-c6cccc(S(=O)(=O)NC(C)(C)C)c6)n5n4)cc3)CC2)CC1 | 233 to 235

SMILES | melting point [°C]
CNc1nc(C(F)(F)F)cc(=O)n1-c1c(Cl)cc(C(F)(F)F)cc1Cl | 211 to 214
N#Cc1cccc(C2=Nc3ccc(CCc4ccccc4)cc3NC(=O)C2)c1 | 212 to 214
CN(C)c1cc(Br)cc(S(=O)(=O)c2ccc([N+](=O)[O-])cc2)c1 | 166 to 168
N#Cc1cccc(C(=O)Nc2cccc(C(=O)NCCC(=O)OCc3ccccc3)c2)c1 | 128 to 131
Cc1c(C)c2c(c(C)c1OC(=O)CCC(=O)O)C(c1ccc(C(C)C)cc1)C(C)(C)O2 (configuration not stated) | 141 to 142
ClCOc1nc(Cl)c(Cl)cc1Cl | 94 to 96
CCCN(CCC)S(=O)(=O)c1cccc(C(=O)Nc2cccc([N+](=O)[O-])c2)c1 | 126 to 128
COc1cc(F)ccc1CCN1c2nc(-c3ccncc3)cc(=O)n2CCC1(C)C | 217 to 219
CC(=O)NNc1ccnc2c(NC(=O)c3c(Cl)cccc3Cl)cc(F)cc12 | 250 to 254
O=Cc1cccc(OCc2ccco2)c1 | 144 to 146
CCOCc1nc2cnc3cc(Br)cnc3c2n1CC(C)C | 115 to 116
CCCCOc1cc(C(=O)O)n(Cc2ccc(Cl)cc2Cl)n1 | 154 to 155
NS(=O)(=O)c1cc2c(s1)SC(CCO)CN2 (configuration not stated) | 145 to 147
Cc1cccc(-n2c(CCl)nc3ccccc3c2=O)c1 | 183 to 185
O=C(O)CN1Cc2ccccc2CC(NC(=O)OCC2c3ccccc3-c3ccccc32)C1=O (configuration not stated) | 117 to 120

Other lines, results leading:

melting point [°C] | SMILES
290 to 292 | COc1ccc(-c2c3c(cc4ccc(OC)cc24)C(=O)NC3)cc1
105 to 106 | C=CCN1C(=O)c2cscc2Nc2ccccc21
228 to 229 | CC(=O)N1CCC(n2cnc3ccc(-c4nnc(C)o4)cc32)CC1
199 to 200 | COC(=O)c1cc(N)c(Oc2ccccc2)c(N2C(=O)CCC2=O)c1
173 to 175 | NCCNc1ncc2ncnc(Nc3ccc(F)c(Cl)c3)c2n1
227 to 230 | Clc1cccc(-c2nnc3c4ccc(Cl)cc4c(-c4ccccc4)nn23)c1
127 to 128 | CCOC(=O)c1cn(C2COC2)c2c(F)c(F)c(F)c(NCc3ccccc3)c2c1=O
106 to 109 | C#CC(C)(C)N1CCN(C(=O)C(C)(C)C)CC1
116 to 117 | Cc1n[nH]c2cc(F)ccc12
195 | COc1cc(OC)c([N+](=O)[O-])nc1N
189 to 190 | CN1CCC(C2(C(N)=O)Cc3ccc([N+](=O)[O-])cc3C2=O)CC1 (configuration not stated)
204 to 205 | CN(c1cccc2c(F)c(C3=NCC(CC(N)=O)S3)[nH]c12)S(=O)(=O)c1cccs1 (configuration not stated)
78 to 80 | CC(=O)Nc1ccccc1OCCCO
152 to 154 | CN1C(=O)N=C(NCc2ccccc2)C1=O
180 to 182 | CC(C)(C)C(=O)COc1nn(CC(=O)C(C)(C)C)c(-c2ccc(S(C)(=O)=O)cc2)c1-c1ccc(F)cc1
155 | Cn1c(=O)cc(-c2ccccc2)c2cc(C(c3ccc(Cl)cc3)n3ccnc3)ccc21 (configuration not stated)
188 to 190 | O=C(O)c1cc(-n2c(-c3ccccc3)cc3c2CCCC3)c(C(F)(F)F)cc1O
140 to 143 | CC(C)(C)OC(=O)NCC(=O)N1CCC[C@H]1C(=O)O
122 to 123 | CC(C)(C#N)c1ccc(C#N)cc1
122 to 123 | O=C(Nc1ccc(Oc2ccccc2)cc1)N1CCN(c2nccc3ccccc23)CC1
186 | Nc1cc(=O)n(Cc2cccc(I)c2)[nH]1

melting point [°C] | SMILES
155 to 157 | CC1(C)C[C@H]2c3cccc4c3N(CCNC4)[C@H]2C1
146 to 147 | OCCCC1=NN(c2nccs2)C(O)(c2ccc(Cl)cc2)C1 (configuration not stated)
61 to 64 | CC(C#N)c1ccc(Cc2ccccc2CC#N)cc1 (configuration not stated)
63 to 65 | COc1ccc(C(=O)N[C@@H](Cc2c[nH]c3ccccc23)C(=O)O)cc1
87 to 90 | O=C(O)C1=COCC(C(=O)O)=C1
214 to 215 | Fc1ccc(-c2nc3ccccc3n3cncc23)cc1
65 to 66 | FC(F)(F)Oc1ccc2nc(COc3ccccc3)[nH]c2c1
209 to 210 | CC1(C)CC(=C(c2ccc(O)cc2)c2ccc(C(N)=O)cc2)CC(C)(C)C1
92 | COc1cc(-c2nc3ccc(OCCCN4CCCCC4)cc3n2Cc2ccccc2)cc(OC)c1OC
140 to 145 | CC(C)(C)c1ccccc1N1CCN(C(=O)c2ccccn2)CC1
136 to 138 | Oc1ccc(CN[C@H]2CC[C@@H](C(c3ccccc3)c3ccccc3)OC2)cc1 (relative stereo)
161 to 162 | CCCNC(=O)CCCCCn1c(COCC)nc2c(N)nc3ccccc3c21
146 to 150 | N#Cc1cnccc1CCCOc1cccnc1Oc1cccc(Cl)c1
189 to 190 | Cc1nn(-c2cc(C(F)(F)F)ccc2Cl)cc1C(=O)N(CC(=O)O)c1ccc(OCC(C)(C)C)c(C#N)c1
97 to 98 | CN(CC1COc2ccccc2O1)S(N)(=O)=O (configuration not stated)
182 to 184 | CNC(=O)c1cc(-c2ccc(OC)c(Cl)c2)nn(CC(C)C)c1=O
111 to 113 | CCOC(=O)C1=C(COCc2nc(C(=O)OCC)cs2)NC(C)=C(C(=O)OC)C1c1ccccc1Cl (configuration not stated)
283 | CCC1=Nc2ccc(S(C)(=O)=O)cc2C(=O)C1
184 to 186 | Cc1cccc(C(=O)O)c1N(C)S(=O)(=O)c1ccc(OCCCNC(=O)c2cc3ccccc3o2)cc1
89 to 92 | CC(=O)Nc1ccc(OCCCO[N+](=O)[O-])cc1

Reference: a melting point compilation (Tetko et al.; mined from patent text by program, amines drawn as free bases though some values may be those of a salt)
